Test results published in patent publication US6608082B1, “Treatment of erectile dysfunction using isoquinoline compound melanocortin receptor ligands” (Lion Bioscience AG, priority 1998, dated 2003).
Like-named read-outs stand apart in the source and are kept apart here.

Columns and labels:
MCR-4 = target: T1, MCR-4 (Homo sapiens, UniProt P32245); assay: Melanocortin receptor binding assay, competition with 125I-HP 467, HEK 293 cells expressing hMCR-4; settings: for IC50: read-out: MC-4 IC50
T1 construct: expressed in transfected cells; host or cells: HEK 293
T1 sequence (P32245 whole entry): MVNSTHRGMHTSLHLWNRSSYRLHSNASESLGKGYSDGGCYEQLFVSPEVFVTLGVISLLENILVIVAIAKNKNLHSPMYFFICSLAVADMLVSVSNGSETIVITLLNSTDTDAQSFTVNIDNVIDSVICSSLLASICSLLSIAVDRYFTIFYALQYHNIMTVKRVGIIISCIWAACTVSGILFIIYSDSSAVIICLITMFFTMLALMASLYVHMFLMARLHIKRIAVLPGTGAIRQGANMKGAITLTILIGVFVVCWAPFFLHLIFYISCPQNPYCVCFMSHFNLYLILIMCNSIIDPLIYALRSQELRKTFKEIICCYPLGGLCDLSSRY
Protocol: All cell culture media and reagents were obtained from GibcoBRL (Gaithersburg Md.), except for COSMIC CALF SERUM (HyClone; Logan Utah).
Cells were suspended in PBS, 10% COSMIC CALF SERUM and 1 mM CaCl2. Cell suspensions were prepared at a density of 2×10^4 cells/ml for HEK 293 cells expressing hMCR-3, hMCR-4 or hMCR-5, and 1×10^5 cells/ml for HEK 293 cells expressing hMCR-1. Suspensions were placed in a water bath and allowed to warm to 37° C. for 1 hr.
Binding assays were performed in a total volume of 250 μl for HEK 293 cells. […] To each tube was added 4×10^3 HEK 293 cells expressing hMCR-3, hMCR-4 or hMCR-5, or 2×10^4 cells expressing hMCR-1. Assays were incubated for 2.5 hr at 37° C.
GF/B filter plates were prepared by soaking for at least one hour in 5 mg/ml BSA and 10 mM CaCl2. Assays were filtered using a Brandel 96-well cell harvester (Brandel Inc.; Gaithersburg, Md.). The filters were washed four times with cold 50 mM Tris, pH 7.4, the filter plates were dehydrated for 2 hr and 35 μl of MICROSCINT was added to each well. Filter plates were counted using a Packard Topcount (Packard Instrument Co.) and data analyzed using GraphPad PRISM v2.0 (GraphPad Software Inc.; San Diego Calif.) and Microsoft EXCEL v5.0a (Microsoft Corp.; Redmond Wash.).
To assay isoquinoline compounds, binding assays were performed in duplicate in a 96 well format. […] A 0.2 ml aliquot of suspended cells was added to each well to give the cell numbers indicate above, and the cells were incubated at 37° C. for 2.5 hr. Cells were harvested on GF/B filter plates as described above and counted.

MCR-1 = target: T2, MCR-1 (Homo sapiens, UniProt Q01726); assay: Melanocortin receptor binding assay, competition with 125I-HP 467, HEK 293 cells expressing hMCR-1; settings: for IC50: read-out: MC-1 IC50
T2 construct: expressed in transfected cells; host or cells: HEK 293
T2 sequence (Q01726 whole entry): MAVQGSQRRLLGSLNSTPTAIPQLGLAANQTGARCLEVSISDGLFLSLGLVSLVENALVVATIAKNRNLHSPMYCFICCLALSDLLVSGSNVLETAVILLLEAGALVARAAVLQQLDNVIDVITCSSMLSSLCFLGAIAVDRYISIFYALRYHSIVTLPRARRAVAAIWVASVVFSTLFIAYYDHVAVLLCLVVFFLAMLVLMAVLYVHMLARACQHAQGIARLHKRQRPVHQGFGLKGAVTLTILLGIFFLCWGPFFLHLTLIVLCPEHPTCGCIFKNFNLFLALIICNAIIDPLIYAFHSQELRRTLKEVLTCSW
Summary of the method: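 Test compounds compete on intact HEK 293 cells carrying hMCR-1 (2×10^4 per tube) or hMCR-4 (4×10^3 per tube), suspended in PBS, 10% calf serum, 1 mM CaCl2.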

[1] = TRG 2408 and TRG 2409 libraries, inhibition of 125I-HP 467 binding
[2] = competition with 125I-HP 467, HEK 293 cells expressing MCR-4
[3] = competition with 125I-HP 467, HEK 293 cells expressing MCR-1
[4] = inhibition of binding of 125I-HP 467, HEK 293 cells expressing MCR-4, TRG 2414 library
[5] = inhibition of binding of 125I-HP 467, HEK 293 cells expressing MCR-1, TRG 2414 library
[6] = inhibition of binding of 125I-HP 467, HEK 293 cells expressing MCR-4
[7] = inhibition of binding of 125I-HP 467, HEK 293 cells expressing MCR-1

Row | SMILES | IC50 (MCR-4; [4]) [µM] | IC50 (MCR-1; [5]) [µM] | also measured
1 | CCNc1ccc(C2C(CNC3CCCCC3)c3ccccc3CN2CCCCC(CN)NCCN)cc1 (mixture of isomers) [TRG 2408-7] | – | – | IC50 (MCR-4; [1]): 44.5 µM; IC50 (MCR-1; [1]): 1.3 µM
2 | CNCCNC(CN)CCCCN1Cc2ccccc2C(CNC2CCCCC2)C1c1ccc(-c2ccccc2)cc1 (mixture of isomers) [TRG 2408-24] | – | – | IC50 (MCR-4; [1]): 17.1 µM; IC50 (MCR-1; [1]): 1.94 µM
3 | CCNc1ccc(C2C(CNC3CCCCC3)c3ccccc3CN2CCCCC(N)CN)cc1 (mixture of isomers) [TRG 2408-31] | – | – | IC50 (MCR-4; [1]): 46.5 µM; IC50 (MCR-1; [1]): 1.27 µM
4 | NCC(CCN1Cc2ccccc2C(CNC2CCCCC2)C1c1ccc(Cl)cc1Cl)NCCc1ccccc1 (mixture of isomers) [TRG 2408-102] | – | – | IC50 (MCR-4; [1]): 1.88 µM; IC50 (MCR-1; [1]): 7.05 µM
5 | NCC(N)CCN1Cc2ccccc2C(CNC2CCCCC2)C1c1ccc(-c2ccccc2)cc1 (mixture of isomers) [TRG 2408-111] | – | – | IC50 (MCR-4; [1]): 12 µM; IC50 (MCR-1; [1]): 7.52 µM
6 | CNCCNC(CN)CCN1Cc2ccccc2C(CNC2CCCCC2)C1c1ccc(-c2ccccc2)cc1 (mixture of isomers) [TRG 2408-114] | – | – | IC50 (MCR-4; [1]): 10.5 µM; IC50 (MCR-1; [1]): 3.24 µM
7 | CNC(C)CNC(CN)CCCCN1Cc2ccccc2C(CN)C1c1ccc(-c2ccccc2)cc1 (mixture of isomers) [TRG 2411-28] | – | – | IC50 (MCR-4; [2]): 1.23 µM; IC50 (MCR-1; [3]): 0.56 µM
8 | CCNc1ccc(C2C(CNCCc3ccccc3)c3ccccc3CN2CCCCC(CN)NCCc2ccc(Br)cc2)cc1 (mixture of isomers) [TRG 2411-41] | – | – | IC50 (MCR-4; [2]): 1.64 µM; IC50 (MCR-1; [3]): 0.49 µM
9 | CCCCNc1ccc(C2C(CNC3CCCCC3)c3ccccc3CN2CCCCC(CN)NCC)cc1 (mixture of isomers) [TRG 2411-87] | – | – | IC50 (MCR-4; [2]): 0.83 µM; IC50 (MCR-1; [3]): 0.23 µM
10 | COc1ccccc1CCNCC1c2ccccc2CN(CCCCC(CN)NCc2ccccc2)C1c1ccc(Cl)cc1Cl (mixture of isomers) [TRG 2414-11] | 3.48 | 1.8 | –
11 | NCC(CCCCN1Cc2ccccc2C(CNC2CCCCC2)C1c1ccc(Cl)cc1Cl)NCc1ccccc1 (mixture of isomers) [TRG 2414-39] | 4.37 | 2.12 | –
12 | NCC(CCCCN1Cc2ccccc2C(CNCc2ccccc2C(F)(F)F)C1c1cccc(Oc2ccccc2)c1)NCCc1ccccc1 (mixture of isomers) [TRG 2414-82] | 42.9 | – | MC-1 IC50 (MCR-1; [5]): no fit
13 | COc1cccc(CNCC2c3ccccc3CN(CCCCC(N)CN)C2c2cccc(Oc3ccccc3)c2)c1 (mixture of isomers) [TRG 2414-97] | 2.5 | 4.51 | –
14 | NCC(CCCCN1Cc2ccccc2C(CNC2CCCCC2)C1c1cccc(Oc2ccccc2)c1)NCCc1ccccc1 (mixture of isomers) [TRG 2414-118] | 4.49 | 8.44 | –
15 | COc1ccccc1CCNCC1c2ccccc2CN(CCCCC(N)CN)C1c1ccc(Oc2ccccc2)cc1 (mixture of isomers) [TRG 2414-129] | 5.58 | 0.146 | –
16 | CCCOc1ccc(C2C(CNCCc3cccc(Cl)c3)c3ccccc3CN2CCCCC(CN)NCCc2ccccc2)cc1 (mixture of isomers) [TRG 2414-174] | 5.42 | 4.3 | –
17 | CCCOc1ccc(C2C(CO)c3ccccc3CN2CCCC(CN)NCCC2CCCCC2)cc1 (mixture of isomers) [TRG 2415-4] | – | – | IC50 (MCR-4; [6]): 2.55 µM; IC50 (MCR-1; [7]): 2.57 µM
18 | CCCCOc1ccc(C2C(CN)c3ccccc3CN2CCCCC(CN)NCC)cc1 (mixture of isomers) [TRG 2415-18] | – | – | IC50 (MCR-4; [6]): 7.95 µM; IC50 (MCR-1; [7]): 0.306 µM
19 | Cc1ccc(CNC(CN)CCCCN2Cc3ccccc3C(CNCCc3ccccc3)C2c2cc(C(F)(F)F)cc(C(F)(F)F)c2)cc1 (mixture of isomers) [TRG 2421-2] | – | – | IC50 (MCR-4; [6]): 3.03 µM; IC50 (MCR-1; [7]): 3.73 µM
20 | NCC(CCCCN1Cc2ccccc2C(CNCCc2ccc(O)cc2)C1c1cc(C(F)(F)F)cc(C(F)(F)F)c1)NCc1ccc(Br)cc1 (mixture of isomers) [TRG 2421-8] | – | – | IC50 (MCR-4; [6]): 5.99 µM; IC50 (MCR-1; [7]): 5 µM
21 | COc1ccc(CCNCC2c3ccccc3CN(CCCCC(CN)NCc3ccc(C)cc3)C2c2cc(C(F)(F)F)cc(C(F)(F)F)c2)cc1OC (mixture of isomers) [TRG 2421-17] | – | – | IC50 (MCR-4; [6]): 0.83 µM; IC50 (MCR-1; [7]): 2.06 µM
22 | CCNc1ccc(C2C(CN)c3ccccc3CN2CCC[C@@H](CN)NCCCCOc2ccccc2)cc1 (some centres unmarked) [2424#2] | – | – | IC50 (MCR-4; [6]): 7.77 µM; IC50 (MCR-1; [7]): 0.05 µM
23 | CCNc1ccc(C2C(CNCCc3ccccc3)c3ccccc3CN2CCC[C@@H](CN)NCCCCOc2ccccc2)cc1 (some centres unmarked) [2424#5] | – | – | IC50 (MCR-4; [6]): 1.51 µM; IC50 (MCR-1; [7]): 0.05 µM

Now from value to compound, other results behind:

Row | IC50 (MCR-4; [4]) [µM] | IC50 (MCR-1; [5]) [µM] | SMILES | also measured
24 | 0.7 | 1.1 | COc1ccccc1CCNCC1c2ccccc2CN(CCCCC(N)CN)C1c1ccc(Cl)cc1Cl (mixture of isomers) [TRG 2414-9] | –
25 | 2.52 | 3.95 | COc1ccc(CCNCC2c3ccccc3CN(CCCCC(CN)NCCc3ccccc3)C2c2ccc(Cl)cc2Cl)cc1 (mixture of isomers) [TRG 2414-26] | –
26 | 0.72 | 1.9 | NCC(N)CCCCN1Cc2ccccc2C(CNC2CCCCCC2)C1c1ccc(Cl)cc1Cl (mixture of isomers) [TRG 2414-33] | –
27 | 1.3 | 0.992 | NCC(N)CCCCN1Cc2ccccc2C(CNC2CCCCC2)C1c1ccc(Cl)cc1Cl (mixture of isomers) [TRG 2414-37] | –
28 | 17.5 | 22.1 | COc1ccccc1CCNCC1c2ccccc2CN(CCCCC(CN)NCC(C)c2ccc(CC(C)C)cc2)C1c1cc(C(F)(F)F)cc(C(F)(F)F)c1 (mixture of isomers) [TRG 2414-52] | –
29 | 9.87 | 10.8 | NCC(N)CCCCN1Cc2ccccc2C(CNCc2ccccc2C(F)(F)F)C1c1cccc(Oc2ccccc2)c1 (mixture of isomers) [TRG 2414-81] | –
30 | 2.17 | 2.43 | CCOc1ccccc1CNCC1c2ccccc2CN(CCCCC(N)CN)C1c1cccc(Oc2ccccc2)c1 (mixture of isomers) [TRG 2414-85] | –
31 | – | 42.6 | COc1ccccc1CCNCC1c2ccccc2CN(CCCCC(CN)NCC(C)c2ccc(CC(C)C)cc2)C1c1cccc(Oc2ccccc2)c1 (mixture of isomers) [TRG 2414-92] | MC-4 IC50 (MCR-4; [4]): no fit
32 | 9.61 | 13.2 | COc1cccc(CNCC2c3ccccc3CN(CCCCC(CN)NCCc3ccccc3)C2c2cccc(Oc3ccccc3)c2)c1 (mixture of isomers) [TRG 2414-98] | –
33 | 7.48 | 8.13 | COc1ccc(CNCC2c3ccccc3CN(CCCCC(CN)NCc3ccccc3)C2c2cccc(Oc3ccccc3)c2)cc1 (mixture of isomers) [TRG 2414-103] | –
34 | – | 25 | CCOc1ccccc1CNCC1c2ccccc2CN(CCCCC(CN)NCC(C)c2ccc(CC(C)C)cc2)C1c1ccc(Oc2ccccc2)cc1 (mixture of isomers) [TRG 2414-128] | MC-4 IC50 (MCR-4; [4]): no fit
35 | 16.8 | 8.21 | COc1ccc(CCNCC2c3ccccc3CN(CCCCC(CN)NCCc3ccccc3)C2c2ccc(Oc3ccccc3)cc2)cc1 (mixture of isomers) [TRG 2414-146] | –
36 | 6.71 | 2.74 | NCC(CCCCN1Cc2ccccc2C(CNC2CCCCC2)C1c1ccc(Oc2ccccc2)cc1)NCCc1ccccc1 (mixture of isomers) [TRG 2414-158] | –
37 | 18.4 | 19.1 | CCCOc1ccc(C2C(CNCc3ccccc3C(F)(F)F)c3ccccc3CN2CCCCC(CN)NCCc2ccccc2)cc1 (mixture of isomers) [TRG 2414-162] | –
38 | 5.06 | 0.994 | CCCOc1ccc(C2C(CNCc3ccccc3OCC)c3ccccc3CN2CCCCC(N)CN)cc1 (mixture of isomers) [TRG 2414-165] | –
39 | 5.07 | 0.739 | CCCOc1ccc(C2C(CNCc3cccc(OC)c3)c3ccccc3CN2CCCCC(N)CN)cc1 (mixture of isomers) [TRG 2414-177] | –
40 | 47.1 | 8.19 | CCCOc1ccc(C2C(CNCc3cccc(OC)c3)c3ccccc3CN2CCCCC(CN)NCC(C)c2ccc(CC(C)C)cc2)cc1 (mixture of isomers) [TRG 2414-180] | –
